Experimental data published in patent US11414425B2 (priority 2018, dated 2022).
Read-outs that look alike come from different tables or passages of the source.

What was measured:
aged-impaired (AI) rats [1] = assay: Radial Arm Maze (RAM) behavioral task, spatial memory retention; type: in vivo, rat
Source text: A Radial Arm Maze (RAM) behavioral task is one example of a cognitive test, specifically testing spacial memory (Chappell et al. Neuropharmacology 37: 481-487, 1998). The RAM apparatus consists of, e.g., eight equidistantly spaced arms. A maze arm projects from each facet of a center platform. A food well is located at the distal end of each arm. Food is used as a reward. Blocks can be positioned to prevent entry to any arm. Numerous extra maze cues surrounding the apparatus may also be provided. After habituation and training phases, spatial memory of the subjects may be tested in the RAM under control or test compound-treated conditions. As a part of the test, subjects are pretreated before trials with a vehicle control or one of a range of dosages of the test compound. At the beginning of each trial, a subset of the arms of the eight-arm maze is blocked. Subjects are allowed to obtain food on the unblocked arms to which access is permitted during this initial “information phase” of the trial. Subjects are then removed from the maze for a delay period, e.g., a 60 second delay, a 15 minute delay, a one-hour delay, a two-hour delay, a six hour delay, a 24 hour delay, or longer) between the information phase and the subsequent “retention test,” during which the barriers on the maze are removed, thus allowing access to all eight arms. […] The identity and configuration of the blocked arms vary across trials. The number of “errors” the subjects make during the retention test phase is tracked. An error occurs in the trial if the subjects entered an arm from which food had already been retrieved in the pre-delay component of the trial, or if it re-visits an arm in the post-delay session that had already been visited. A fewer number of errors would indicate better spatial memory. The number of errors made by the test subject, under various test compound treatment regimes, can then be compared for efficacy of the test compound in treating cognitive impairment associated with CNS disorders.
The effects of methyl 3,5-diphenylpyridazine-4-carboxylate on the in vivo spatial memory retention of aged-impaired (AI) rats were assessed in a Radial Arm Maze (RAM) behavioral task using vehicle control and four different dosage levels of methyl 3,5-diphenylpyridazine-4-carboxylate (0.1 mg/kg, 0.3 mg/kg, 1 mg/kg and 3 mg/kg, ip). RAM behavioral tasks were performed on eight AI rats. All five treatment conditions (vehicle and four dosage levels) were tested on all eight rats.
The RAM apparatus used consisted of eight equidistantly-spaced arms. An elevated maze arm (7 cm width×75 cm length) projected from each facet of an octagonal center platform (30 cm diameter, 51.5 cm height). Clear side walls on the arms were 10 cm high and were angled at 65° to form a trough. […]

[2] = type: in vivo, Long Evans rats; conditions: i.v.
Experimental: (§1) Food and water were available ad libitum.
For plasma exposures, blood samples were centrifuged at 14000 rpm for 16 minutes. After centrifuging, 50 ul of supernatant (plasma) from each sample was added to 200 μl of acetonitrile plus 0.1% formic acid. […] Samples were sonicated for 5 minutes in an ultrasonic water bath, followed by centrifugation for 30 minutes, at 16000 RPM. 100 ul of supernatant was removed from each sample vial and placed in a new glass auto sample vial, followed by the addition of 300 μl of sterile water (pH 6.5).
Additional studies were conducted in aged Long-Evans rats in order to determine the exposures at the behaviorally relevant doses in the cognition studies. Exposure in young Long-Evans rats was also determined to bridge with the receptor occupancy studies that were conducted in young Long-Evans rats. Exposures in young and aged Long-Evans rats were relatively similar (Table 4, FIG. 4).

GABAAα5 receptor = molecular target: T1, GABAAα5 receptor (Rattus norvegicus, UniProt P18508+P19969); assay: in vivo; type: in vivo, Long Evans rats
T1 construct: occupancy in the hippocampus (a region of high GABAAα5 receptor density); from tissue; host or cells: rat brain in vivo: hippocampus versus cerebellum
T1 sequence (P19969 32-464): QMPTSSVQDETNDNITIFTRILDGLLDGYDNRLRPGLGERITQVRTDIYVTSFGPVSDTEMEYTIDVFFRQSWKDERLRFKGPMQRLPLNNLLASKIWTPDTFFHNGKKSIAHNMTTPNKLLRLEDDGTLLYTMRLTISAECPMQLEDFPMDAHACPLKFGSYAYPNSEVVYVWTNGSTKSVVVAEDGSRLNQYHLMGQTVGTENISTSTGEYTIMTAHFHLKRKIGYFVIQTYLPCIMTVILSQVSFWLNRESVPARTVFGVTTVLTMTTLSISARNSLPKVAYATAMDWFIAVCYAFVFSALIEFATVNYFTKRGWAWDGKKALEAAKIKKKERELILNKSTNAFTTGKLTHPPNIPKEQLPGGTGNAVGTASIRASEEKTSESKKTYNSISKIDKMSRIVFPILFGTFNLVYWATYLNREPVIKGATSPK
T1 sequence (P18508 39-466): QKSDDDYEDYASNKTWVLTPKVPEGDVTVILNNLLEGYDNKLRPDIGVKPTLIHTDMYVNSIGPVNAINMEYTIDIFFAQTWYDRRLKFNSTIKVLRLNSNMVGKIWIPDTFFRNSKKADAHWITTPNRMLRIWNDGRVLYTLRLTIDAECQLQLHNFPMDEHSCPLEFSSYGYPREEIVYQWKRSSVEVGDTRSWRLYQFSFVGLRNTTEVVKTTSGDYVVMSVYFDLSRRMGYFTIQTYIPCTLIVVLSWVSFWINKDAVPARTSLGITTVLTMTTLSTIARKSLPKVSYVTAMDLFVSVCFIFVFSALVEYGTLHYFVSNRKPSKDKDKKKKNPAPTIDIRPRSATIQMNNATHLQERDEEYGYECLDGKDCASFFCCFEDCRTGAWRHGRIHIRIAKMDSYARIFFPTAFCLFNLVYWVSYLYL
Source text: as §1

α5-containing GABAAR = α5-containing GABAAR (Homo sapiens, UniProt P18507+P31644); conditions: (EC20); cited from earlier work
α5-containing GABAAR, sequence (P31644 32-462): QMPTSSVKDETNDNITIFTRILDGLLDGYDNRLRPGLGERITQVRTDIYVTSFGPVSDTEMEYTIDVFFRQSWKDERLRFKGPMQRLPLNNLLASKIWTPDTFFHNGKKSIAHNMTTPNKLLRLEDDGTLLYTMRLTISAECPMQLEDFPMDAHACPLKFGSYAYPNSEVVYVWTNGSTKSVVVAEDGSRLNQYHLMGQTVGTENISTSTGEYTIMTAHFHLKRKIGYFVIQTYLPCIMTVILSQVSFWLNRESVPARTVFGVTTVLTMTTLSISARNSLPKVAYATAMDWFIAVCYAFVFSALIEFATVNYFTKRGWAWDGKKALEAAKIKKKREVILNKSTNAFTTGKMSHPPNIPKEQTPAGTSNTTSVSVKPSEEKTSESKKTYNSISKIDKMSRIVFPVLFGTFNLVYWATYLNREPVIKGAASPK
α5-containing GABAAR, sequence (P18507 40-475): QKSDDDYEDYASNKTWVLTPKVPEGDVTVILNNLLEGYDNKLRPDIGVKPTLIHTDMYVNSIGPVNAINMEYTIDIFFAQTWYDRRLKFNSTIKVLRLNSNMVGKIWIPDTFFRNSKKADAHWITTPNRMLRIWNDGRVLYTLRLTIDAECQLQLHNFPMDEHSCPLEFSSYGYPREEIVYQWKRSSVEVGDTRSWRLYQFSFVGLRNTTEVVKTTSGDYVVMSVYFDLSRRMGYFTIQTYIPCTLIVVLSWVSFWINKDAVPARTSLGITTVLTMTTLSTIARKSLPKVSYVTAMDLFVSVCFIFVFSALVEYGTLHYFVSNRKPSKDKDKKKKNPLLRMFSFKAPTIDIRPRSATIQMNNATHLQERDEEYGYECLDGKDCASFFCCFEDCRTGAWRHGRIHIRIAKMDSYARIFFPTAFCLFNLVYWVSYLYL
α5-containing GABAAR, sequence (P28472 26-473, further chain): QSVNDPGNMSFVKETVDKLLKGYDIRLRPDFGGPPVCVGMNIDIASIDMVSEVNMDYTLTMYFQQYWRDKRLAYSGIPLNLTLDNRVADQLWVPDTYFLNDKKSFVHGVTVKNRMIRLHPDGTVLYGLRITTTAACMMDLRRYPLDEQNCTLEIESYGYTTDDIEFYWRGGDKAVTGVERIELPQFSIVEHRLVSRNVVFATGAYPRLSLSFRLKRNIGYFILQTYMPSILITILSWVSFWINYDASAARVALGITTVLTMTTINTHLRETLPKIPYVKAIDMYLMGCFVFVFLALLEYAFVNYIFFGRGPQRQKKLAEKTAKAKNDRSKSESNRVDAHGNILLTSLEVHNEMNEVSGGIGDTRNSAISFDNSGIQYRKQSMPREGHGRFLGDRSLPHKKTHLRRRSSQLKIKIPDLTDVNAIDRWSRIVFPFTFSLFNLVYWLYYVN

MAM-treated rats = conditions: cited from earlier work
aged-impaired (AI) rats [3] = assay: Morris water maze behavioral task; type: in vivo, rat; conditions: 100 μg ICV
Source text: Another cognitive test that may be used to assess the effects of a test compound on the cognitive impairment of a CNS disorder model animal is the Morris water maze. A water maze is a pool surrounded with a novel set of patterns relative to the maze. […] The subject is trained to locate a submerged escape platform hidden underneath the surface of the pool. During the training trial, a subject is released in the maze (pool) from random starting positions around the perimeter of the pool. The starting position varies from trial to trial. […] After a delay period following the last training trial, a retention test in the absence of the escape platform is given to assess spatial memory. The subject's level of preference for the location of the (now absent) escape platform, as measured by, e.g., the time spent in that location or the number of crossings of that location made by the mouse, indicates better spatial memory, i.e., treatment of cognitive impairment. The preference for the location of the escape platform under different treatment conditions, can then be compared for efficacy of the test compound in treating cognitive impairment associated with CNS disorders.
The effects of 6,6 dimethyl-3-(3-hydroxypropyl)thio-1-(thiazol-2-yl)-6,7-dihydro-2-benzothiophen-4(5H)-one on the in vivo spatial memory retention of aged-impaired (AI) rats were assessed in a Morris water maze behavioral task. A water maze is a pool surrounded with a novel set of patterns relative to the maze.
Cognitively impaired aged rats were implanted unilaterally with a cannula into the lateral ventricle. Stereotaxic coordinates were 1.0 mm posterior to bregma, 1.5 mm lateral to midline, and 3.5 mm ventral to the skull surface. After about a week of recovery, the rats were pre-trained in a water maze for 2 days (6 trials per day) to locate a submerged escape platform hidden underneath the surface of the pool, in which the escape platform location varied from day to day. No intracerebroventricular (ICV) infusion was given during pre-training.
After pre-training, rats received ICV infusion of either 100 μg 6,6 dimethyl-3-(3-hydroxypropyl)thio-1-(thiazol-2-yl)-6,7-dihydro-2-benzothiophen-4(5H)-one (n=6) in 5 μl DMSO or vehicle DMSO (n=5) 40 min prior to water maze training and testing. Training consisted of 8 trials per day for 2 days where the hidden escape platform remained in the same location. Rats were given 60 seconds to locate the platform with a 60 seconds inter-trial interval. The rats were given a probe test (120 seconds) 24 hr. after the end of training where the escape platform was removed. During the training, there were 4 blocks, where each block had 4 training trials.
During a test trial 24 hr. after training, the escape platform was removed. […]

[4] = probe test 24 hr. after training

COC(=O)c1c(-c2ccccc2)cnnc1-c1ccccc1 [Methyl 3,5-diphenylpyridazine-4-carboxylate, reference compound]
memory performance relative to vehicle control treatment (aged-impaired (AI) rats [1]; 3 mg/kg ip, two-hour delay RAM, t(7)=4.233, p=0.004): significantly improved memory performance
average no. of errors ± standard error of the mean (SEM), retention test (aged-impaired (AI) rats [1]; 3 mg/kg ip, two-hour delay, AI rats): 1.31±0.40
increase in hippocampal exposure ([2]; dose from 0.1 to 1 mg/kg): 12 fold
increase in hippocampal exposure ([2]; dose from 1 to 10 mg/kg): ~5 fold
increase in plasma exposure ([2]; dose from 1 to 10 mg/kg): 12 fold
GABAA α5 receptors occupied (GABAAα5 receptor; at exposures behaviorally active in aged-impaired rats, hippocampus): about 32%
receptor occupancy ED50, ratio method (GABAAα5 receptor; i.v., hippocampus/cerebellum ratio): 1.8 mg/kg
receptor occupancy at 10 mg/kg (GABAAα5 receptor; rat, iv, 10 mg/kg, i.v., read-out: GABAA α5 receptor occupancy): > 90%
α5 in vitro efficacy (α5-containing GABAAR): +27

CCOC(=O)c1ncn2c1Cn1c(C)nnc1-c1cc(OC)ccc1-2 [ethyl 3-methoxy-7-methyl-9H-benzo[f]imidazo[1,5-a][1,2,4]tri]
memory performance relative to vehicle control treatment (aged-impaired (AI) rats [1]; 3 mg/kg, four-hour delay RAM, t(7)=4.13, p=0.004, or t(7)=3.08, p=0.018): significantly improved memory performance
memory performance relative to vehicle control treatment (aged-impaired (AI) rats [1]; 10 mg/kg, four-hour delay RAM, t(7)=2.82, p=0.026): significantly improved memory performance
effect on binding of Ro 15-4513 in hippocampus (GABAAα5 receptor; 0.01-10 mg/kg, i.v.): reduced Ro 15-4513 binding in hippocampus
effect on binding/levels of Ro 15-4513 in cerebellum (GABAAα5 receptor; 0.01-10 mg/kg, i.v.): without affecting cerebellum levels of Ro 15-4513
GABAA α5 receptor occupancy (GABAAα5 receptor; 10 mg/kg, i.v.): > 90%

C#Cc1ccc2c(c1)C(c1ccccc1F)=N[C@H](C)c1c(C(=O)OCC)ncn1-2 [SH-053-2′F—R—CH3]
number of spontaneously active DA neurons in the ventral tegmental area (VTA) (MAM-treated rats; MAM rats, systemic and infused into ventral HPC): reduces the number of spontaneously active DA neurons in the ventral tegmental area (VTA) of MAM rats to levels observed in saline-treated rats
locomotor response to amphetamine (MAM-treated rats; MAM-treated rats): reduced
cortical-evoked responses of HPC neurons (MAM-treated rats; saline-treated and MAM-treated animals): diminished cortical-evoked responses

CC1(C)CC(=O)c2c(SCCCO)sc(-c3nccs3)c2C1 [6,6 dimethyl-3-(3-hydroxypropyl)thio-1-(thiazol-2-yl)-6,7-dihydro-2-benzothiophen-4(5H)-one]
time to find the escape platform (aged-impaired (AI) rats [3]; block 1 of training): about 24 seconds
time to find the escape platform (aged-impaired (AI) rats [3]; block 4 of training): about 9.6 seconds
number of crossings of target annulus vs opposite annulus (aged-impaired (AI) rats [3]; [4]): crossed the “target annulus” more often
time in target annulus vs opposite annulus (aged-impaired (AI) rats [3]; [4]): spent significantly more time in the target annulus
